{
  "source": "ChEMBL document CHEMBL4421721",
  "about": "“Use of dynamin ring stabilizers” (2012)",
  "key": {"Dynamin-1 (Homo sapiens)": {"biological_target": "T1, Dynamin-1 (Homo sapiens) (UniProt Q05193)", "T1 sequence (whole entry)": "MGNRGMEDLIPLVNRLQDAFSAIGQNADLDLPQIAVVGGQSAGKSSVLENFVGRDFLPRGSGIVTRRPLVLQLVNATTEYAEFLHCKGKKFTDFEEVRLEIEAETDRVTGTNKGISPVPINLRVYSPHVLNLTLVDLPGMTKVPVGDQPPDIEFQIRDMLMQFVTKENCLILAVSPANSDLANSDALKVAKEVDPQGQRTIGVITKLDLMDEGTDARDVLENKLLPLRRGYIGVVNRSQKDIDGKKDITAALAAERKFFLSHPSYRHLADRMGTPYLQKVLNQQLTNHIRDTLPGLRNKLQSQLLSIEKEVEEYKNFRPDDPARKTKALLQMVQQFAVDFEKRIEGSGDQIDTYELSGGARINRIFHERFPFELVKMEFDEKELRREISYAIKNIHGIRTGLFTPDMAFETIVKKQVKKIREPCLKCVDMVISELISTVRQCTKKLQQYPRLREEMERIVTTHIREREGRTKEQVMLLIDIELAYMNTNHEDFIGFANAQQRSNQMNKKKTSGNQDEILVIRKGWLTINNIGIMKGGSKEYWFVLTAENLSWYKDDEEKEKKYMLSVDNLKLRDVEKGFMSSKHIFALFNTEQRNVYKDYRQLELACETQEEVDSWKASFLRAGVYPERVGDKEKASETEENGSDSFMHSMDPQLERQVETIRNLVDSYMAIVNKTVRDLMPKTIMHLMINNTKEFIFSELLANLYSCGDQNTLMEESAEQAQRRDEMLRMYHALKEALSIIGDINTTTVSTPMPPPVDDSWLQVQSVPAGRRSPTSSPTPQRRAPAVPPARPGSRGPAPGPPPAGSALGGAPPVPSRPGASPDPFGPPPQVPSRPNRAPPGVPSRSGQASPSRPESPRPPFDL", "test": "Ring stabilizer activity at recombinant dynamin 1 dimeric GG2 form (unknown origin) assessed as stimulation of GTPase activity using 200 to 1000 nM full-length dynamin"}, "Ovis aries [1]": {"organism": "Ovis aries", "test": "Ring stabilizer activity at full-length native sheep brain dynamin 1 assessed as increase in basal dynamin GTP hydrolysis up to 40 mins"}, "Mus musculus [2]": {"test_system": "Mus musculus", "test": "Reduction in proteinuria in BALB/c mouse model of LPS-induced reversible proteinuric kidney disease at 300 ug/100 g body weight, ip measured 2 to 6 hrs post dose by ELISA", "type": "functional, organism-based"}, "Ovis aries [3]": {"organism": "Ovis aries", "test": "Induction of helical shape alteration of full-length native sheep brain dynamin 1 by electron microscopic analysis"}, "Dynamin-1 (Mus musculus) [4]": {"biological_target": "T2, Dynamin-1 (Mus musculus) (UniProt P39053)", "T2 sequence (whole entry)": "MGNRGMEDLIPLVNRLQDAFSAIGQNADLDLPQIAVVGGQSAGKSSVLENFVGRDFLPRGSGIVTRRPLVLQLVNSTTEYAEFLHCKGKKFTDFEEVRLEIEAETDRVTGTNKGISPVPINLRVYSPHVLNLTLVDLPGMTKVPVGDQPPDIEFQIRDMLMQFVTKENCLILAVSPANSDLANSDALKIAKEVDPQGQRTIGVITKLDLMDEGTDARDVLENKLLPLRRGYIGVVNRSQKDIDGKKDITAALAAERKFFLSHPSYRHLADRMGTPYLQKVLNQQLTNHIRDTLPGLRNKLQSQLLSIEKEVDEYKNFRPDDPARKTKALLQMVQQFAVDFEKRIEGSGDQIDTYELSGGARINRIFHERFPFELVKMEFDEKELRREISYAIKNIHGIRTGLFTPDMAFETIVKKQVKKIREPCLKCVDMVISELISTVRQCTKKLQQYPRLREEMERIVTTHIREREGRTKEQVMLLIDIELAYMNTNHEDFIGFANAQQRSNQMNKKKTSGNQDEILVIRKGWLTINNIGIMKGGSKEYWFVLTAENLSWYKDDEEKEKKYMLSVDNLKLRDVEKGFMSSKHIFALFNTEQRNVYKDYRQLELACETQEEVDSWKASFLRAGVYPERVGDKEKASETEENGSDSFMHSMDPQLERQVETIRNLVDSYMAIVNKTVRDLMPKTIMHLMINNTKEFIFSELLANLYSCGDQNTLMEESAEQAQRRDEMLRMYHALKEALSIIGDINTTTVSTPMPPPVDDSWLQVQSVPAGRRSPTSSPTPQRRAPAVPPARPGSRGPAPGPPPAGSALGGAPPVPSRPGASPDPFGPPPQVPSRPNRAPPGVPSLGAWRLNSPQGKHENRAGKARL", "test": "Ring stabilizer activity at dynamin in mouse podocytes assessed as increase in focal adhesions incubated for 10 mins by paxillin staining based assay", "type": "cell-based"}, "Ovis aries [5]": {"organism": "Ovis aries", "test": "Ring stabilizer activity at full-length native sheep brain dynamin 1 assessed as stimulation of GTPase activity at 5 uM in absence of PS liposomes using <100 nM full-length dynamin 1"}, "Ovis aries [6]": {"organism": "Ovis aries", "test": "Ring stabilizer activity at full-length native sheep brain dynamin 1 assessed as stimulation of GTPase activity using 800 nM full-length dynamin in presence of 30 mM NaCl in absence of PS liposomes and measured after 4 mins", "conditions": "TDE = time-dependent effect"}, "Mus musculus [7]": {"test_system": "Mus musculus", "test": "Reduction in proteinuria in BALB/c mouse model of LPS-induced reversible proteinuric kidney disease at 300 ug/100 g body weight, ip measured 8 hrs post dose by ELISA", "type": "functional, organism-based"}, "Mus musculus [8]": {"organism": "Mus musculus", "test": "Inhibition of endocytosis in mouse podocytes", "type": "functional, cell-based"}, "Ovis aries [9]": {"organism": "Ovis aries", "test": "Inhibition of dis-assembly of pre-assembled full-length native sheep brain dynamin 1 pre-incubated in presence of PS liposomes followed compound addition at 5 uM and measured after 10 mins"}, "Ovis aries [10]": {"organism": "Ovis aries", "test": "Ring stabilizer activity at full-length native sheep brain dynamin 1 assessed as increase in basal dynamin GTP hydrolysis up to 40 mins in presence of Gsn-F-actin"}, "Dynamin-1 (Mus musculus) [11]": {"biological_target": "T2, Dynamin-1 (Mus musculus)", "test": "Ring stabilizer activity at dynamin in mouse podocytes assessed as increase in well-defined stress fibers incubated for 10 mins", "type": "cell-based"}, "[12]": {"test": "Inhibition of helical full-length native sheep brain dynamin 1 assessed as reduction in PS liposomes-induced GTPase activity", "parameters": "species or system Ovis aries"}, "Mus musculus [13]": {"test_system": "Mus musculus", "test": "Reduction in proteinuria in mouse model of proteinuria expressing ACTN4 gene gain of function mutation at 166 ug/100 g body weight, ip dosed at 0 hrs and measured every 2 hrs post dose up to 6 hrs by ELISA and creatinine companion assay", "type": "functional, organism-based"}, "Ovis aries [14]": {"organism": "Ovis aries", "test": "Inhibition of full-length native sheep brain dynamin 1 assessed as reduction in PS liposomes-induced GTPase activity at 5 uM"}, "Ovis aries [15]": {"organism": "Ovis aries", "test": "Ring stabilizer activity at full-length native sheep brain dynamin 1 assessed as stimulation of GTPase activity in absence of PS liposomes and in presence of tween-80"}, "Ovis aries [16]": {"organism": "Ovis aries", "test": "Induction of self assembly of full-length native sheep brain dynamin 1 assessed as formation of dynamin rings at 5.4 uM using 200 nM full-length dynamin in absence of PS liposomes by electron microscopic analysis"}, "Ovis aries [17]": {"organism": "Ovis aries", "test": "Ring stabilizer activity at full-length native sheep brain dynamin 1 assessed as stimulation of GTPase activity at 5 uM in absence of PS liposomes using =>100 nM full-length dynamin 1"}, "Ovis aries [18]": {"organism": "Ovis aries", "test": "Inhibition of full-length native sheep brain dynamin 1 assessed as reduction in PS liposomes-induced GTPase activity at 5 uM using 400 nM full-length dynamin 1"}},
  "note": "Calls of active or inactive are those of the source. The calls are words filed in the database; no cut-off is given here.",
  "data": [
    {"compound": "N#C/C(=C\\c1cc(O)c(O)c(O)c1)C(=O)NCCCNC(=O)/C(C#N)=C/c1cc(O)c(O)c(O)c1", "values": [
      {"measurement": "Activity", "setting": "Dynamin-1 (Homo sapiens)", "result": "inactive"},
      {"measurement": "Activity", "setting": "Ovis aries [1]", "result": "Active"},
      {"measurement": "Activity", "setting": "Mus musculus [2]", "result": "Active"},
      {"measurement": "Activity", "setting": "Ovis aries [3]", "result": "Active"},
      {"measurement": "Activity", "setting": "Dynamin-1 (Mus musculus) [4]", "result": "Active"},
      {"measurement": "Activity", "setting": "Ovis aries [5]", "result": "inactive"},
      {"measurement": "Activity", "setting": "Ovis aries [6]", "result": "Tde"},
      {"measurement": "Activity", "setting": "Mus musculus [7]", "result": "inactive"},
      {"measurement": "inhibition", "setting": "Mus musculus [8]", "result": "Active"},
      {"measurement": "inhibition", "setting": "Ovis aries [9]", "result": "Active"},
      {"measurement": "Activity", "setting": "Ovis aries [10]", "result": "Active"},
      {"measurement": "Activity", "setting": "Dynamin-1 (Mus musculus) [11]", "result": "Active"},
      {"measurement": "IC50", "setting": "[12]", "result": 0.5, "unit": "µM"},
      {"measurement": "Activity", "setting": "Mus musculus [13]", "result": "Active"},
      {"measurement": "inhibition", "setting": "Ovis aries [14]", "result": "Active"},
      {"measurement": "Activity", "setting": "Ovis aries [15]", "result": "Active"},
      {"measurement": "Activity", "setting": "Ovis aries [16]", "result": "Active"},
      {"measurement": "Activity", "setting": "Ovis aries [17]", "result": "Active"},
      {"measurement": "inhibition", "setting": "Ovis aries [18]", "result": "inactive"}
    ]}
  ]
}
